# Experimental data taken from PubChem BioAssay (NCI).
#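 Test compounds were applied to cells in 96-well plates for 48 hours at 5 doses. TGI denotes the concentration required for complete inhibition of growth.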
# How the values were obtained:
# Assay in all cases: NCI-60 cell line screen, 48 h
# [1] = test system: HL-60(TB) leukemia
# [2] = test system: CAKI-1 renal
# [3] = test system: A549 NSCLC
# [4] = test system: MALME-3M melanoma
# [5] = test system: SNB-19 CNS
# [6] = test system: HCT-116 colon
# [7] = test system: UACC-62 melanoma
# [8] = test system: RPMI-8226 leukemia
# [9] = test system: DLD-1 colon
# [10] = test system: OVCAR-8 ovarian
# [11] = test system: COLO 205 colon
# [12] = test system: HCT-15 colon
# [13] = test system: EKVX NSCLC
# [14] = test system: SW-620 colon
# [15] = test system: RXF 393 renal
# [16] = test system: 786-0 renal
# [17] = test system: NCI-H226 lung
# [18] = test system: LXFL 529 NSCLC
# [19] = test system: IGROV1 ovarian
# [20] = test system: NCI-H23 lung
# [21] = test system: SF-539 CNS
# [22] = test system: HOP-92 NSCLC
# [23] = test system: U251 CNS
# [24] = test system: DMS 114 small cell lung
# [25] = test system: NCI-H522 lung
# [26] = test system: ACHN renal
# [27] = test system: KM20L2 colon
# [28] = test system: KM12 colon
# [29] = test system: CCRF-CEM leukemia
# [30] = test system: HOP-62 NSCLC
# [31] = test system: SF-268 CNS
# [32] = test system: SK-OV-3 ovarian
# [33] = test system: SR leukemia
# [34] = test system: SN12C renal
# [35] = test system: OVCAR-3 ovarian
# [36] = test system: SK-MEL-5 melanoma
# [37] = test system: UACC-257 melanoma
# [38] = test system: HT29 colon
# [39] = test system: MOLT-4 leukemia
# [40] = test system: DMS 273 small cell lung
# [41] = test system: RXF-631 renal
# [42] = test system: HCC-2998 colon
# [43] = test system: TK-10 renal
# [44] = test system: K-562 leukemia
# [45] = test system: SK-MEL-2 melanoma
# [46] = test system: SK-MEL-28 melanoma
# [47] = test system: LOX IMVI melanoma
# [48] = test system: SF-295 CNS
# [49] = test system: NCI-H460 lung
# [50] = test system: OVCAR-4 ovarian
# [51] = test system: XF 498 CNS
# [52] = test system: M14 melanoma
# [53] = test system: A498 renal
# [54] = test system: OVCAR-5 ovarian
# [55] = test system: UO-31 renal
# [56] = test system: NCI/ADR-RES ovarian
# [57] = test system: SNB-78 CNS
# [58] = test system: SNB-75 CNS
# [59] = test system: MDA-MB-231 breast
# [60] = test system: M19-MEL melanoma
# [61] = test system: MDA-MB-435
# [62] = test system: PC-3 prostate
# [63] = test system: T-47D breast
# [64] = test system: HS 578T breast
# [65] = test system: DU-145 prostate
# [66] = test system: MCF7 breast
# [67] = test system: HOP-18 NSCLC
compound,measurement,setting,value
Cn1c2c(c3ccccc31)C1C(=O)N(c3ccccc3)C(=O)C1CC2 (stereo unspecified),TGI,[1],> 303 µM
same,TGI,[2],> 303 µM
same,TGI,[3],> 303 µM
same,TGI,[4],> 303 µM
same,TGI,[5],> 303 µM
same,TGI,[6],> 303 µM
same,TGI,[7],> 303 µM
same,TGI,[8],> 303 µM
same,TGI,[9],> 303 µM
same,TGI,[10],> 303 µM
same,TGI,[11],> 303 µM
same,TGI,[12],> 303 µM
same,TGI,[13],> 303 µM
same,TGI,[14],> 303 µM
same,TGI,[15],> 303 µM
same,TGI,[16],> 303 µM
same,TGI,[17],> 303 µM
same,TGI,[18],> 303 µM
same,TGI,[19],> 303 µM
same,TGI,[20],> 303 µM
same,TGI,[21],> 303 µM
same,TGI,[22],> 303 µM
same,TGI,[23],> 303 µM
same,TGI,[24],> 303 µM
same,TGI,[25],> 303 µM
same,TGI,[26],> 303 µM
same,TGI,[27],> 303 µM
same,TGI,[28],> 303 µM
same,TGI,[29],> 303 µM
same,TGI,[30],> 303 µM
same,TGI,[31],> 303 µM
same,TGI,[32],> 303 µM
same,TGI,[33],> 303 µM
same,TGI,[34],> 303 µM
same,TGI,[35],> 303 µM
same,TGI,[36],> 303 µM
same,TGI,[37],> 303 µM
same,TGI,[38],> 303 µM
same,TGI,[39],> 303 µM
same,TGI,[40],> 303 µM
same,TGI,[41],> 303 µM
same,TGI,[42],> 303 µM
same,TGI,[43],> 303 µM
same,TGI,[44],> 303 µM
same,TGI,[45],> 303 µM
same,TGI,[46],> 303 µM
same,TGI,[47],> 303 µM
same,TGI,[48],> 303 µM
same,TGI,[49],> 303 µM
S=C(N/N=C/c1ccccc1)NC12CC3CC(CC(C3)C1)C2,TGI,[1],> 100 µM
same,TGI,[2],> 100 µM
same,TGI,[3],> 100 µM
same,TGI,[5],> 100 µM
same,TGI,[6],> 100 µM
same,TGI,[7],> 100 µM
same,TGI,[8],95.5 µM
same,TGI,[50],> 100 µM
same,TGI,[10],> 100 µM
same,TGI,[11],89.6 µM
same,TGI,[12],> 100 µM
same,TGI,[13],> 100 µM
same,TGI,[14],> 100 µM
same,TGI,[15],> 100 µM
same,TGI,[51],> 100 µM
same,TGI,[16],> 100 µM
same,TGI,[17],> 100 µM
same,TGI,[18],> 100 µM
same,TGI,[19],> 100 µM
same,TGI,[20],> 100 µM
same,TGI,[21],> 100 µM
same,TGI,[22],56.2 µM
same,TGI,[23],> 100 µM
same,TGI,[25],> 100 µM
same,TGI,[26],> 100 µM
same,TGI,[52],> 100 µM
same,TGI,[53],> 100 µM
same,TGI,[27],76.2 µM
same,TGI,[28],> 100 µM
same,TGI,[29],92.4 µM
same,TGI,[30],> 100 µM
same,TGI,[31],> 100 µM
same,TGI,[32],> 100 µM
same,TGI,[33],> 100 µM
same,TGI,[34],48.8 µM
same,TGI,[35],83.4 µM
same,TGI,[36],> 100 µM
same,TGI,[37],> 100 µM
same,TGI,[38],26.5 µM
same,TGI,[39],74.2 µM
same,TGI,[40],67.9 µM
same,TGI,[41],> 100 µM
same,TGI,[43],> 100 µM
same,TGI,[54],> 100 µM
same,TGI,[44],> 100 µM
same,TGI,[45],> 100 µM
same,TGI,[55],> 100 µM
same,TGI,[46],> 100 µM
same,TGI,[47],45.1 µM
same,TGI,[48],> 100 µM
same,TGI,[49],> 100 µM
COc1cc(/C=C/c2ccc(/C=C/c3cc(OC)c(OC)c(OC)c3)cc2)cc(OC)c1OC,TGI,[1],> 100 µM
same,TGI,[56],> 100 µM
same,TGI,[2],72.3 µM
same,TGI,[3],> 100 µM
same,TGI,[4],60.1 µM
same,TGI,[5],32.6 µM
same,TGI,[6],> 100 µM
same,TGI,[7],25.1 µM
same,TGI,[8],> 100 µM
same,TGI,[50],18.1 µM
same,TGI,[9],> 100 µM
same,TGI,[10],56.1 µM
same,TGI,[57],85 µM
same,TGI,[58],19.5 µM
same,TGI,[11],> 100 µM
same,TGI,[59],52.7 µM
same,TGI,[60],> 100 µM
same,TGI,[61],> 100 µM
same,TGI,[12],> 100 µM
same,TGI,[13],> 69.1 µM
same,TGI,[14],> 100 µM
same,TGI,[15],20.4 µM
same,TGI,[51],31.4 µM
same,TGI,[62],> 100 µM
same,TGI,[16],20.7 µM
same,TGI,[17],49.7 µM
same,TGI,[18],35.9 µM
same,TGI,[19],> 71.1 µM
same,TGI,[20],25.2 µM
same,TGI,[63],24 µM
same,TGI,[21],17.8 µM
same,TGI,[22],34.7 µM
same,TGI,[23],29.5 µM
same,TGI,[24],> 68.2 µM
same,TGI,[25],27.2 µM
same,TGI,[26],44.5 µM
same,TGI,[52],> 100 µM
same,TGI,[64],75.5 µM
same,TGI,[53],26.1 µM
same,TGI,[27],> 76.3 µM
same,TGI,[28],> 77.4 µM
same,TGI,[29],> 100 µM
same,TGI,[30],31.3 µM
same,TGI,[31],42.5 µM
same,TGI,[32],22.7 µM
same,TGI,[33],> 100 µM
same,TGI,[34],> 100 µM
same,TGI,[65],> 100 µM
same,TGI,[35],77.3 µM
same,TGI,[36],> 100 µM
same,TGI,[37],> 100 µM
same,TGI,[38],> 61.7 µM
same,TGI,[39],> 100 µM
same,TGI,[40],> 48.9 µM
same,TGI,[42],> 61.1 µM
same,TGI,[66],> 100 µM
same,TGI,[43],39.5 µM
same,TGI,[54],> 100 µM
same,TGI,[44],> 100 µM
same,TGI,[45],53.9 µM
same,TGI,[67],> 100 µM
same,TGI,[55],> 84.6 µM
same,TGI,[46],> 100 µM
same,TGI,[47],> 85.8 µM
same,TGI,[48],19.8 µM
same,TGI,[49],> 82 µM
